Assay results taken from patent US10918728B2, “Compositions and methods for increasing efficiency of cardiac metabolism” (IMBRIA PHARMACEUTICALS, INC., priority 2017, dated 2021).

Assay: Stability of CV-8972 in aqueous solution at different concentrations and pH
Type: physicochemical
Description: The stability of CV-8972 was analyzed. Aqueous samples containing CV-8972 at different concentrations and pH were incubated for various periods and analyzed.
Form A of CV-8972 were analyzed for stability in aqueous solution. Aqueous samples containing CV-8972 at different concentrations and pH were incubated for various periods and analyzed.

## COc1ccc(CN2CCN(CCOC(=O)c3cccnc3)CC2)c(OC)c1OC.Cl.O [276-MBA-172]
2 mg/mL pH 6 (Form A), 1 hrs, PH 6.1
  Retention Time 5.6 (CV-8972 purity): 97.22
2 mg/mL pH 6 (Form A), 4 hrs, PH 6.1
  Retention Time 5.6 (CV-8972 purity): 97.01
2 mg/mL pH 6 (Form A), 6 hrs, PH 6.1
  Retention Time 5.6 (CV-8972 purity): 96.51
2 mg/mL pH 7 (Form A), 1 hrs, PH 6.8
  Retention Time 5.6 (CV-8972 purity): 95.06
2 mg/mL pH 7 (Form A), 4 hrs, PH 6.7
  Retention Time 5.6 (CV-8972 purity): 93.7
2 mg/mL pH 7 (Form A), 6 hrs, PH 6.7
  Retention Time 5.6 (CV-8972 purity): 92.12
2 mg/mL pH 7 (Form A), 22 hrs, PH 6.8
  Retention Time 5.6 (CV-8972 purity): 91.07
10 mg/mL pH 6 (Form A), 1 hrs, PH 6.8
  Retention Time 5.6 (CV-8972 purity): 93.43
10 mg/mL pH 6 (Form A), 4 hrs, PH 6.8
  Retention Time 5.6 (CV-8972 purity): 91.82
10 mg/mL pH 6 (Form A), 6 hrs, PH 6.7
  Retention Time 5.6 (CV-8972 purity): 91.8
10 mg/mL pH 6 (Form A), 22 hrs, PH 6.7
  Retention Time 5.6 (CV-8972 purity): 89.66
10 mg/mL pH 7 (Form A), 1 hrs, PH 7.2
  Retention Time 5.6 (CV-8972 purity): 89.05
10 mg/mL pH 7 (Form A), 4 hrs, PH 7.1
  Retention Time 5.6 (CV-8972 purity): 86.8
10 mg/mL pH 7 (Form A), 6 hrs, PH 7.1
  Retention Time 5.6 (CV-8972 purity): 84.79

## COc1ccc(CN2CCN(CCOC(=O)c3cccnc3)CC2)c(OC)c1OC.Cl.O [289-MBA-15-A]
2 mg/mL pH 6 (Form B), 1 hrs, PH 6.9
  Retention Time 5.6 (CV-8972 purity): 95.1
2 mg/mL pH 6 (Form B), 4 hrs, PH 6.8
  Retention Time 5.6 (CV-8972 purity): 92.45
2 mg/mL pH 6 (Form B), 6 hrs, PH 6.8
  Retention Time 5.6 (CV-8972 purity): 90.65
2 mg/mL pH 6 (Form B), 22 hrs, PH 6.7
  Retention Time 5.6 (CV-8972 purity): 89.15
2 mg/mL pH 7 (Form B), 1 hrs, PH 6.6
  Retention Time 5.6 (CV-8972 purity): 95.46
2 mg/mL pH 7 (Form B), 4 hrs, PH 6.5
  Retention Time 5.6 (CV-8972 purity): 93.92
10 mg/mL pH 6 (Form B), 1 hrs, PH 6.1
  Retention Time 5.6 (CV-8972 purity): 94.81
10 mg/mL pH 6 (Form B), 4 hrs, PH 6
  Retention Time 5.6 (CV-8972 purity): 94.69
10 mg/mL pH 6 (Form B), 6 hrs, PH 5.9
  Retention Time 5.6 (CV-8972 purity): 94.39
10 mg/mL pH 6 (Form B), 22 hrs, PH 5.9
  Retention Time 5.6 (CV-8972 purity): 93.93
10 mg/mL pH 7 (Form B), 1 hrs, PH 7.4
  Retention Time 5.6 (CV-8972 purity): 86.18
10 mg/mL pH 7 (Form B), 4 hrs, PH 7.4
  Retention Time 5.6 (CV-8972 purity): 82.36
10 mg/mL pH 7 (Form B), 6 hrs, PH 7.3
  Retention Time 5.6 (CV-8972 purity): 79.37
